Patent US20250290034A1, “METHOD FOR PRODUCING NAÏVE PLURIPOTENT STEM CELLS” (KYOTO UNIVERSITY, priority 2022, published 2025)

Tests used:
[1] = test system: H9EOS cells; assay: Chemical resetting of primed H9EOS cells to naive state; EGFP-positive cells quantified on Day 14 by flow cytometry; assay type: cell-based, human; settings: for BMP activation judged from resetting efficiency standardized to Chemical only: 1, 5 or 10 μM added to VPA-containing cRM-1 on Days 3-5 (FIG. 10, 11); for resetting efficiency with respect to chemical: VPA-free cRM-1, miR-98-5p transfected Day 1 combined with BMP2 or BMP4 added Day 2 (FIG. 12)
Protocol: After collecting H9EOS and H9EOS (NK) cells and measuring the cell count in the same manner as for subculturing, they were diluted with AK02N medium containing Y-27632 (Nacalai Tesque, 08945-84) and iMatrix-511 silk (Nippi, 387-10131) (culture medium for primed pluripotent stem cells) and seeded on a multiwell plate (modified method of G. Guo, et. al., 144, 2748-2763 (2017)). The medium was exchanged with AK02N on Day 1, with culturing in cRM-1 (NDiff 227 (Takara, Y40002) containing 1 μM PD0325901, 10 ng/ml hLIF, 1 mM VPA) or VPA-free cRM-1 (culture medium for naive pluripotent stem cells) from Day 2 to Day 5, followed by culturing up to Day 14 in cRM-2 (NDiff 227 containing 1 μM PD0325901, 10 ng/ml hLIF, 2 μM Go6983, 2 μM XAV939). The resetting efficiency was quantified by counting the cell count using a flow cytometer, with the EGFP-expressing cells as naive cells.
The mimic used for each miRNA was mirVana miRNA Mimic (Thermo Fisher Scientific). A control, mirVana miRNA Mimic, Negative Control (Thermo Fisher Scientific, 4464058) was also used. Introduction was carried out on either Day 1, 2, 3 or 4, or a combination thereof, during the normal course of resetting, using Lipofectamine RNAiMAX Transfection Reagent (Thermo Fisher Scientific, 13778075) as the miRNA mimic. Culturing was then carried out according to common resetting protocol, and the EGFP-positive cells were quantified on Day 14 using a flow cytometer.
On Day 1 of the resetting protocol shown in FIG. 2, the 22 plasmids were used, either alone or as a mixture of the 22 plasmids minus one each, for transfection together with the transposase-expressing plasmid (pCAG-PBase), using Lipofectamine Stem Transfection Reagent (Thermo Fisher Scientific, STEM00003). Doxycycline was added at a final concentration of 250 ng/ml to cRM-1 on Days 2 to 5 to induce gene expression. Culturing was then carried out according to common resetting protocol, and the EGFP-positive cells were quantified on Day 14 using a flow cytometer.
[…] 2. Culturing was then carried out according to common resetting protocol, and the EGFP-positive cells were quantified on Day 14 using a flow cytometer.
To cRM-1 containing or not containing VPA there was added 10-100 ng/mL of rhBMP4 (Reprocell, 314-BP-010), on one or more of Days 1 to 5 of the resetting protocol of FIG. 2. Culturing was then carried out according to common resetting protocol, and the EGFP-positive cells were quantified on Day 14 using a flow cytometer.
On Day 1 of the resetting protocol of FIG. 2, one siRNA from among NR6A1, TRIM71, LRIG1, DNMT3B, IGF2BP1, CACHD1, PCDH8, L1TD1, SFRP1, VASH2, LIN28B, USP44, MAPK10, DICER1, DPH3, PRTG, MAPK6, HMGA2, LINC01356 (n491112) and LINC01356 (n549768) (all purchased from Horizon Discovery/Dharmacon) was introduced using Lipofectamine RNAiMAX Transfection Reagent (Thermo Fisher Scientific, 13778075). Culturing was then carried out according to common resetting protocol, and the EGFP-positive cells were quantified on Day 14 using a flow cytometer.

[2] = test system: AdiPS iPS cells and H1, H9EOS and H9 ES cells; assay: Resetting efficiency by SUSD2 staining and flow cytometry; assay type: cell-based, human; settings: all cell lines; miR-98-5p mimic Day 1 or BMP4 Day 2; VPA-containing cRM-1; Day 14 (FIG. 16)
Protocol: AccuMax was added to the cells on Day 14 of the resetting protocol of FIG. 2, and the mixture was incubated at 37° C. for about 10 to 15 minutes, after which the cells were detached. They were then suspended in 1% BSA-PBS to prevent nonspecific antibody binding, and after 30 minutes of blocking on ice, SUSD2 antibody was mixed with the cell suspension to a final concentration of 1:500, reaction was conducted for 30 minutes on ice and the mixture was rinsed with PBS, after which measurement was performed with a flow cytometer.
FIG. 16 is a graph showing resetting efficiency in culturing with VPA-containing cRM-1, using AdiPS iPS cells and H1, H9EOS and H9 ES cells. With mimic_ctrl and mimic-98-5p, cells were transfected with control mimic or miR-98-5p mimic on Day 1, culturing was carried out in VPA-containing cRM-1 from Day 2 to Day 4, and culturing was in cRM-2 from Day 5 to Day 14. For BMP-4, the BMP4 was added to VPA-containing cRM-1 on Day 2 without transfection of cells with control mimic or miR-98-5p mimic, for culturing up to Day 4, and then culturing was in cRM-2 from Day 5 to Day 14. […]

Molecule	BMP activation judged from resetting efficiency standardized to Chemical only ([1]; H9EOS)	resetting efficiency with respect to chemical ([1]; H9EOS)	percentage of SUSD2-positive cells [2]	also measured
Brc1ccc(CSc2nc3ccccc3o2)cc1 [SB-4]	capable of activating BMP			
O=C(/C=C/c1ccc(O)cc1)c1ccc(O)cc1O [isoliquiritigenin]	capable of activating BMP			
BMP4: recombinant human bone morphogenetic protein BMP4 (Reprocell, 314-BP-010)		increase	tended to increase	resetting efficiency (GFP-positive cells) ([1]; H9EOS transfected with miR-98-5p Day 1, BMP4 added earlier (Day 0/1) with Wnt inhibitor (IWP mix, 1 μM) simultaneously or before, VPA-containing cRM-1 (FIG. 17)): maintaining the resetting efficiency; resetting efficiency compared to chemical ([1]; H9EOS, BMP added to medium on Day 2, VPA-containing cRM-1 (FIG. 12)): highly significant increase; resetting efficiency ([1]; H9EOS, rhBMP4 added on Day 0 (FIG. 12, 13)): lower
miR-98-5p: let-7 family miRNA mimic (mirVana), sequence UGAGGUAGUAAGUUGUAUUGUU, SEQ ID 1 (listed as RNA, chemistry not given here; listed as Homo sapiens)		increase	tended to increase	resetting efficiency ([1]; H9EOS, miR-98-5p transfected Day 1 in addition to BMP2 or BMP4 on Day 2, VPA-containing cRM-1 (FIG. 12)): tended to further increase; resetting efficiency (EGFP-positive cells) ([1]; H9EOS, miRNA mimic transfected on Day 1, cRM-1 containing VPA, Day 14 (FIG. 3, FIG. 4)): significantly high
